How the values were obtained:
HeLa S-3 cells = experiment: Inhibition of cell growth of HeLa cells (SRB); format: cell-based, human; conditions: Homo sapiens, HeLa S3, 48 h, 2 days of treatment, replicate experiments
MCF7 = experiment: NCI 60-cell line growth inhibition assay; format: cell-based; conditions: Homo sapiens; Breast, MCF7
MDA-MB-231/ATCC = experiment: NCI 60-cell line growth inhibition assay; format: cell-based; conditions: Homo sapiens; Breast, MDA-MB-231/ATCC
MDA-MB-435 = experiment: NCI 60-cell line growth inhibition assay; format: cell-based; conditions: Homo sapiens; Breast, MDA-MB-435
T-47D = experiment: NCI 60-cell line growth inhibition assay; format: cell-based; conditions: Homo sapiens, T47D; Breast, T-47D
SF-268 = experiment: NCI 60-cell line growth inhibition assay; format: cell-based; conditions: Homo sapiens; CNS, SF-268
SF-295 = experiment: NCI 60-cell line growth inhibition assay; format: cell-based; conditions: Homo sapiens; CNS, SF-295
SNB-19 = experiment: NCI 60-cell line growth inhibition assay; format: cell-based; conditions: Homo sapiens; CNS, SNB-19
U251 = experiment: NCI 60-cell line growth inhibition assay; format: cell-based; conditions: Homo sapiens, U-251; CNS, U251
COLO 205 = experiment: NCI 60-cell line growth inhibition assay; format: cell-based; conditions: Homo sapiens; Colon, COLO 205
HCC-2998 = experiment: NCI 60-cell line growth inhibition assay; format: cell-based; conditions: Homo sapiens; Colon, HCC-2998
HCT-15 = experiment: NCI 60-cell line growth inhibition assay; format: cell-based; conditions: Homo sapiens; Colon, HCT-15
HT29 = experiment: NCI 60-cell line growth inhibition assay; format: cell-based; conditions: Homo sapiens, HT-29; Colon, HT29
KM12 = experiment: NCI 60-cell line growth inhibition assay; format: cell-based; conditions: Homo sapiens; Colon, KM12
SW-620 = experiment: NCI 60-cell line growth inhibition assay; format: cell-based; conditions: Homo sapiens; Colon, SW-620
CCRF-CEM = experiment: NCI 60-cell line growth inhibition assay; format: cell-based; conditions: Homo sapiens; Leukemia, CCRF-CEM
HL-60(TB) = experiment: NCI 60-cell line growth inhibition assay; format: cell-based; conditions: Homo sapiens; Leukemia, HL-60(TB)
K-562 = experiment: NCI 60-cell line growth inhibition assay; format: cell-based; conditions: Homo sapiens, K562; Leukemia, K-562
MOLT-4 = experiment: NCI 60-cell line growth inhibition assay; format: cell-based; conditions: Homo sapiens; Leukemia, MOLT-4
SR = experiment: NCI 60-cell line growth inhibition assay; format: cell-based; conditions: Homo sapiens; Leukemia, SR
LOX IMVI = experiment: NCI 60-cell line growth inhibition assay; format: cell-based; conditions: Homo sapiens; Melanoma, LOX IMVI
M14 = experiment: NCI 60-cell line growth inhibition assay; format: cell-based; conditions: Homo sapiens; Melanoma, M14
MALME-3M = experiment: NCI 60-cell line growth inhibition assay; format: cell-based; conditions: Homo sapiens; Melanoma, MALME-3M
SK-MEL-2 = experiment: NCI 60-cell line growth inhibition assay; format: cell-based; conditions: Homo sapiens; Melanoma, SK-MEL-2
SK-MEL-28 = experiment: NCI 60-cell line growth inhibition assay; format: cell-based; conditions: Homo sapiens; Melanoma, SK-MEL-28
UACC-257 = experiment: NCI 60-cell line growth inhibition assay; format: cell-based; conditions: Homo sapiens; Melanoma, UACC-257
UACC-62 = experiment: NCI 60-cell line growth inhibition assay; format: cell-based; conditions: Homo sapiens; Melanoma, UACC-62
A549/ATCC = experiment: NCI 60-cell line growth inhibition assay; format: cell-based; conditions: Homo sapiens; Non-Small Cell Lung, A549/ATCC
EKVX = experiment: NCI 60-cell line growth inhibition assay; format: cell-based; conditions: Homo sapiens; Non-Small Cell Lung, EKVX
NCI-H322M = experiment: NCI 60-cell line growth inhibition assay; format: cell-based; conditions: Homo sapiens; Non-Small Cell Lung, NCI-H322M
NCI-H460 = experiment: NCI 60-cell line growth inhibition assay; format: cell-based; conditions: Homo sapiens; Non-Small Cell Lung, NCI-H460
IGROV1 = experiment: NCI 60-cell line growth inhibition assay; format: cell-based; conditions: Homo sapiens, IGROV-1; Ovarian, IGROV1
OVCAR-3 = experiment: NCI 60-cell line growth inhibition assay; format: cell-based; conditions: Homo sapiens; Ovarian, OVCAR-3
OVCAR-5 = experiment: NCI 60-cell line growth inhibition assay; format: cell-based; conditions: Homo sapiens; Ovarian, OVCAR-5
OVCAR-8 = experiment: NCI 60-cell line growth inhibition assay; format: cell-based; conditions: Homo sapiens; Ovarian, OVCAR-8
SK-OV-3 = experiment: NCI 60-cell line growth inhibition assay; format: cell-based; conditions: Homo sapiens; Ovarian, SK-OV-3
PC-3 = experiment: NCI 60-cell line growth inhibition assay; format: cell-based; conditions: Homo sapiens; Prostate, PC-3
ACHN = experiment: NCI 60-cell line growth inhibition assay; format: cell-based; conditions: Homo sapiens; Renal, ACHN
CAKI-1 = experiment: NCI 60-cell line growth inhibition assay; format: cell-based; conditions: Homo sapiens; Renal, CAKI-1
RXF 393 = experiment: NCI 60-cell line growth inhibition assay; format: cell-based; conditions: Homo sapiens; Renal, RXF 393
TK-10 = experiment: NCI 60-cell line growth inhibition assay; format: cell-based; conditions: Homo sapiens; Renal, TK-10
UO-31 = experiment: NCI 60-cell line growth inhibition assay; format: cell-based; conditions: Homo sapiens; Renal, UO-31
[1] = tested on: Tumor Cells in Hollow Fibers; experiment: NCI Hollow Fiber Assay (in vivo evaluation)
[2] = MTD (NCI in vivo evaluation, Table 8); conditions: mouse
BT-549 = experiment: NCI 60-cell line growth inhibition assay; format: cell-based; conditions: Homo sapiens; Breast, BT-549
NCI/ADR-RES = experiment: NCI 60-cell line growth inhibition assay; format: cell-based; conditions: Homo sapiens; Breast, NCI/ADR-RES
SF-539 = experiment: NCI 60-cell line growth inhibition assay; format: cell-based; conditions: Homo sapiens; CNS, SF-539
HCT-116 = experiment: NCI 60-cell line growth inhibition assay; format: cell-based; conditions: Homo sapiens; Colon, HCT-116
RPMI-8226 = experiment: NCI 60-cell line growth inhibition assay; format: cell-based; conditions: Homo sapiens; Leukemia, RPMI-8226
SK-MEL-5 = experiment: NCI 60-cell line growth inhibition assay; format: cell-based; conditions: Homo sapiens; Melanoma, SK-MEL-5
HOP-62 = experiment: NCI 60-cell line growth inhibition assay; format: cell-based; conditions: Homo sapiens; Non-Small Cell Lung, HOP-62
NCI-H23 = experiment: NCI 60-cell line growth inhibition assay; format: cell-based; conditions: Homo sapiens; Non-Small Cell Lung, NCI-H23
NCI-H522 = experiment: NCI 60-cell line growth inhibition assay; format: cell-based; conditions: Homo sapiens; Non-Small Cell Lung, NCI-H522
OVCAR-4 = experiment: NCI 60-cell line growth inhibition assay; format: cell-based; conditions: Homo sapiens; Ovarian, OVCAR-4
DU-145 = experiment: NCI 60-cell line growth inhibition assay; format: cell-based; conditions: Homo sapiens; Prostate, DU-145
786-0 = experiment: NCI 60-cell line growth inhibition assay; format: cell-based; conditions: Homo sapiens; Renal, 786-0

## CC[C@H](CO)Nc1nc(NCc2ccc(-c3cccc(C(F)(F)F)c3)cc2)c2ncn(C(C)C)c2n1 [Compound 38]
HeLa S-3 cells
  GI50: 0.6 µM
MCF7
  GI50: 0.2 µM
MDA-MB-231/ATCC
  GI50: 0.06 µM
MDA-MB-435
  GI50: 0.05 µM
T-47D
  GI50: 0.25 µM
SF-268
  GI50: 0.2 µM
SF-295
  GI50: 0.5 µM
SNB-19
  GI50: 0.5 µM
U251
  GI50: 0.2 µM
COLO 205
  GI50: 0.16 µM
HCC-2998
  GI50: 7.94 µM
HCT-15
  GI50: 0.25 µM
HT29
  GI50: 0.25 µM
KM12
  GI50: 0.16 µM
SW-620
  GI50: 0.03 µM
CCRF-CEM
  GI50: 0.2 µM
HL-60(TB)
  GI50: 0.04 µM
K-562
  GI50: 0.25 µM
MOLT-4
  GI50: 0.25 µM
SR
  GI50: 3.98 µM
LOX IMVI
  GI50: 0.4 µM
M14
  GI50: 0.05 µM
MALME-3M
  GI50: 0.25 µM
SK-MEL-2
  GI50: 2 µM
SK-MEL-28
  GI50: 0.03 µM
UACC-257
  GI50: 0.5 µM
UACC-62
  GI50: 1 µM
A549/ATCC
  GI50: 0.13 µM
EKVX
  GI50: 0.2 µM
NCI-H322M
  GI50: 0.4 µM
NCI-H460
  GI50: 3.16 µM
IGROV1
  GI50: 0.16 µM
OVCAR-3
  GI50: 1 µM
OVCAR-5
  GI50: 0.4 µM
OVCAR-8
  GI50: 0.25 µM
SK-OV-3
  GI50: 3.98 µM
PC-3
  GI50: 0.4 µM
ACHN
  GI50: 2 µM
CAKI-1
  GI50: 0.2 µM
RXF 393
  GI50: 0.13 µM
TK-10
  GI50: 0.4 µM
UO-31
  GI50: 0.13 µM
[1]; IP fibers
  IP Score: 0
[1]; SC fibers
  SC score: 4
[2]
  MTD: 100 mg/kg

## C=Cc1ccc(-c2ccc(CNc3nc(N[C@H](CC)CO)nc4c3ncn4C(C)C)cc2)cc1 [Compound 33]
BT-549
  GI50: 51.3 µM
MCF7
  GI50: 5.2 µM
MDA-MB-435
  GI50: 4.9 µM
NCI/ADR-RES
  GI50: 6.3 µM
T-47D
  GI50: 3.9 µM
SF-268
  GI50: 6.3 µM
SF-295
  GI50: 7.8 µM
SF-539
  GI50: 89.1 µM
SNB-19
  GI50: 38 µM
U251
  GI50: 3.7 µM
COLO 205
  GI50: 7.8 µM
HCC-2998
  GI50: > 1000 µM
HCT-116
  GI50: 6.2 µM
HCT-15
  GI50: 8.9 µM
HT29
  GI50: 8.9 µM
KM12
  GI50: 4.1 µM
SW-620
  GI50: 2.9 µM
CCRF-CEM
  GI50: 4.6 µM
HL-60(TB)
  GI50: 3.2 µM
K-562
  GI50: 3.1 µM
MOLT-4
  GI50: 3.8 µM
RPMI-8226
  GI50: 1.5 µM
SR
  GI50: 4.5 µM
LOX IMVI
  GI50: 16.6 µM
M14
  GI50: 7.8 µM
MALME-3M
  GI50: 11.7 µM
SK-MEL-2
  GI50: > 1000 µM
SK-MEL-28
  GI50: 5.9 µM
SK-MEL-5
  GI50: 16.2 µM
UACC-257
  GI50: 75.9 µM
UACC-62
  GI50: 8.3 µM
A549/ATCC
  GI50: 4.6 µM
EKVX
  GI50: 6.9 µM
HOP-62
  GI50: > 1000 µM
NCI-H23
  GI50: 26.3 µM
NCI-H322M
  GI50: 38.9 µM
NCI-H460
  GI50: 25.7 µM
NCI-H522
  GI50: 4.2 µM
IGROV1
  GI50: 10 µM
OVCAR-3
  GI50: > 1000 µM
OVCAR-4
  GI50: 31.6 µM
OVCAR-5
  GI50: > 1000 µM
OVCAR-8
  GI50: 6.6 µM
SK-OV-3
  GI50: > 1000 µM
DU-145
  GI50: 17.8 µM
PC-3
  GI50: > 1000 µM
786-0
  GI50: 18.6 µM
ACHN
  GI50: 5.2 µM
CAKI-1
  GI50: 4.4 µM
TK-10
  GI50: 8.3 µM
UO-31
  GI50: 8.1 µM
